Data set [1] deals with HepG2. In words: MTT cytotoxicity assay, HepG2. The settings on record: Homo sapiens, HepG2, Table 2, synthesized phenanthrenes. Type of data set: cell-based, human. How it is done: (§1) The cytotoxic assay of 11 naturally occurring and 19 synthesized phenanthrenes was carried out on a diverse set of human liver (HepG2 and Hep3B), oral (Ca9-22), lung (A549) and breast (MEA-MB-231 and MCF7) cancer cell lines, and a human fetal lung fibroblast (MRC-5) cell line (Tables 1 and 2).
(§2) Compounds were tested against human liver (HepG2 and Hep3B), oral (Ca9-22), lung (A549), breast (MEA-MB-231 and MCF7) cancer cell lines, and the human fetal lung fibroblast (MRC-5) cell line using an established colorimetric MTT assay protocol. The absorbance was measured at 550 nm using a microplate reader. The IC50 is the concentration of agent that reduced cell growth by 50% under the experimental conditions.
A general note: Tetrazolium dyes change colour on reduction, which living cells bring about.

For data set [2], the system named is Hep3B. The data set can be described thus: MTT cytotoxicity assay, Hep3B. Type of data set: cell-based, human. The settings on record: Homo sapiens, Hep3B, Table 2, synthesized phenanthrenes. As for the experimental part: as §1, §2
The test system of data set [3] is Ca9-22. In words: MTT cytotoxicity assay, Ca9-22. The settings on record: Homo sapiens, Ca9-22, Table 2, synthesized phenanthrenes. Type of data set: cell-based, human. How it is done:
as §1, §2

The subject of data set [4] is A549. The data set can be described thus: MTT cytotoxicity assay, A549. It counts as cell-based, human. The settings on record: Homo sapiens, A549, Table 2, synthesized phenanthrenes. How it is done:
as §1, §2

Data set [5] deals with MCF-7. The data set can be described thus: MTT cytotoxicity assay, MCF-7. It counts as cell-based, human. The following applies: Homo sapiens; for IC50: MCF7, Table 2, synthesized phenanthrenes, MTT; for MCF-7 activity class (from IC50): MCF7, Table S3, read-out: Scale Exptl. (MCF-7 activity class). As for the experimental part: as §1, §2
The pharmacophore modeling with Catalyst HypoGen was performed via Discovery Studio 2.1 (Accelrys, San Diego, CA, USA). Twenty-nine phenanthrene derivatives were collected from the natural plant, C. arisanensis, and from chemical synthesis (Figure 2). Cytotoxicity against MCF-7 cells was determined by the MTT assay and the concentration (µg/mL) of test compound which inhibited 50% of the cancer cells (IC50) was used in the generation of the pharmacophore model. An IC50 value of >20 µg/mL was defined as 20 µg/mL. All experimental IC50 values spanned about 2–3 orders of magnitude from 0.09 to 20 µg/mL. The 2D/3D structures of compounds were generated using ChemBioOffice 2008 (Cambridge Scientic Computing, Cambridge, Massachusetts, USA) and then optimized in a Dreiding force field. The conformational ensemble of each compound was generated using the best conformational analysis method based on a CHARMM force field with a 20 kcal/mol energy threshold above the global minimum. A maximum limit of 255 conformations was used to cover maximum conformational space. The best 3D arrangements of chemical functionalities should explain the activity variations among the 29 compounds. Thirty runs with different parameters were performed for the best pharmacophore hypothesis. Four chemical features, including hydrogen-bond acceptor (HBA), hydrogen-bond donor (HBD), hydrophobic (HYD), and aromatic ring (AR) features, were also tested during the building of pharmacophore hypotheses (Table S1; Text S1). The best hypotheses were selected via a correlation and a cost analysis in Catalyst HypoGen.

Data set [6] deals with MDA-MB-231. In words: MTT cytotoxicity assay, MDA-MB-231. Type of data set: cell-based, human. The settings on record: Homo sapiens, MDA-MB-231, Table 2, synthesized phenanthrenes. How it is done:
as §1, §2

The subject of data set [7] is MRC-5. In words: MTT cytotoxicity assay, MRC-5 fetal lung fibroblast. It counts as cell-based, human. The following applies: Homo sapiens, MRC5, Table 2, synthesized phenanthrenes, normal fetal lung fibroblast. How it is done: as §1, §2
In data set [8] the test system is human cancer cell lines. In words: MTT cytotoxicity assay, ranges over the cancer cell line panel. It counts as cell-based. As for the experimental part: as §1, §2
Data set [9] addresses T1, topoisomerase IIα (Homo sapiens, UniProt P11388).
T1 construct: purchased TopoGEN, Inc
In words: Topoisomerase II DNA cleavage assay (Topo II Drug Screening Kit). It counts as biochemical. How it is done:
From the ChemGPS-NP analysis, it seems that the MOA for 3-methoxy-1,4-PQs might processes cytotoxicity as a topoisomerase II inhibitor.
Figure 10 Topoisomerase II DNA cleavage assay. An in vitro assay was used to assess the effect of compounds 6a and 5a on the DNA cleavage activity of human TopoII. Etoposide was the positive control. Control lane: TopoIIα + plasmid DNA. DMSO lane: TopoIIα + plasmid DNA + DMSO.
Topoisomerase II assay was performed by using a Topo II Drug Screening Kit (TopoGEN, Inc.). In brief, 0.1 µg of pHOT plasmid DNA was incubated with 2 units of topoisomerase IIα in 20 µL assay buffer at 37°C for 40 min in the presence of tested compounds (6a, 5a) and control drug, etoposide, respectively. 2 µL of 10% SDS and 2.5 µL of 10 mg/mL proteinase K were added into the reaction sample and then incubated for 30 min at 37°C to digest topoisomerase IIα. The samples were mixed with 2 µL of loading buffer and cleaned up by adding an equal volume of phenol:chloroform:isoamyl alcohol (25∶24∶1) according to the description. The sample was mixed by vortex and centrifuge for 10 sec. An aliquot (10 µL) of the upper aqueous part was analyzed by electrophoresis with 2% agarose gel containing 0.5 µg/mL of ethidium bromide.

Converted amounts (≈) assume the structure as drawn.

T1 sequence (P11388 whole entry): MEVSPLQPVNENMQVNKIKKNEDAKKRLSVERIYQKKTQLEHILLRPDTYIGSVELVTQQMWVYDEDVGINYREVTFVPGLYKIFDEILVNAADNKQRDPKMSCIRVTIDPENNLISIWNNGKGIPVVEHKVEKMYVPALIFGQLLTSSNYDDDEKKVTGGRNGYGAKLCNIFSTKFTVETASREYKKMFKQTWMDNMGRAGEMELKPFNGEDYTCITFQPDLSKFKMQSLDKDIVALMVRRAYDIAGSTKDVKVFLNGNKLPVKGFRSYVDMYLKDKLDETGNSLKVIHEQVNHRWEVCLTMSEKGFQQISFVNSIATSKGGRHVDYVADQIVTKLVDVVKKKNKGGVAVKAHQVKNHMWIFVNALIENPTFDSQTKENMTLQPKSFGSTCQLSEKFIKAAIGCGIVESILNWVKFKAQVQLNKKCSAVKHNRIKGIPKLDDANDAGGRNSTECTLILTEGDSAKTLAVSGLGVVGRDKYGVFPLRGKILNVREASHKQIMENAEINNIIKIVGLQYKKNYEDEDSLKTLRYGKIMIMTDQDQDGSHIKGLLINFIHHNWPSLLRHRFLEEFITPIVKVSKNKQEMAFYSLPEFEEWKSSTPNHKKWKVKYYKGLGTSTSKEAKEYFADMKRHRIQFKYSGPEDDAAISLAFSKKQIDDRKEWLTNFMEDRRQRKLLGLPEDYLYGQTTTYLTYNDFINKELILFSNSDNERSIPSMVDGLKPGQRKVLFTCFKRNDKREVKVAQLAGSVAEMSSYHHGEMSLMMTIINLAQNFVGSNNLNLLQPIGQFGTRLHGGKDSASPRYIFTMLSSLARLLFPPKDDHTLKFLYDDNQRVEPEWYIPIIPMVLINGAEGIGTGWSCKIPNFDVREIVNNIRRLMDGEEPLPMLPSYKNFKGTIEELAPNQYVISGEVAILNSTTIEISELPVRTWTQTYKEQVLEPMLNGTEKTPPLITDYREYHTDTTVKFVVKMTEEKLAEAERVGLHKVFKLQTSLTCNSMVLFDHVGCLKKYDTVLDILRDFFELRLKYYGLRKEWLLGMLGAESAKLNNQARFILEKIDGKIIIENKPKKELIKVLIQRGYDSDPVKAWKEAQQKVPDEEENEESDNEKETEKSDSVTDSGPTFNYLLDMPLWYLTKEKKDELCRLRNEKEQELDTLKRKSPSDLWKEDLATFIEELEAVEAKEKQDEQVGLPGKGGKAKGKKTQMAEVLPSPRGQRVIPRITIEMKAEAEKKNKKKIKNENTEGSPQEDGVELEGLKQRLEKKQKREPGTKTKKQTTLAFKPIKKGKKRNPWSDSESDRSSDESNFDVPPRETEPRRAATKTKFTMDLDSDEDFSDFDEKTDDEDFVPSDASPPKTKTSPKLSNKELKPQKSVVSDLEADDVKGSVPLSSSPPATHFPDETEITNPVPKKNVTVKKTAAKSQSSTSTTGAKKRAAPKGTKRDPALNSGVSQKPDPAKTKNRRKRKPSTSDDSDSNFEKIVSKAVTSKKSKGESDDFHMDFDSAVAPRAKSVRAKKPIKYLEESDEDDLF

What is called melting point is the temperature of the solid-liquid transition. In turn, `COc1cc(OC)c2c3c(ccc2c1)C(=O)C=CC3=O` [Compound 4b, 5,7-Dimethoxy-1,4-phenanthrenequinone] gave a melting point of 121 °C. The compound further registered an IC50 in data set [1] of 18.64 ± 0.14 µg/mL (≈ 69.5 µM). In addition, in data set [2], the IC50 is 12.1 ± 0.33 µg/mL (≈ 45.1 µM). In addition, in data set [3], the IC50 was 3.45 ± 0.03 µg/mL (≈ 12.9 µM). The same compound gave an IC50 in data set [4] of more than 20 µg/mL. Also, in data set [5], the IC50 was 15.63 ± 0.01 µg/mL (≈ 58.3 µM) and the MCF-7 activity class (from IC50) was 1 to 20 µg/mL. The IC50 in data set [6] was 7.09 ± 0.01 µg/mL (≈ 26.4 µM). Besides, in [7], the IC50 is more than 20 µg/mL.

Consider `COC1=CC(=O)c2ccc3cc(OC)c(OC)c(OC)c3c2C1=O` [Compound 5a, 3,5,6,7-Tetramethoxy-1,4-phenanthrenequinone], for which the IC50 in data set [1] is 4.65 ± 0.07 µg/mL (≈ 14.2 µM); in data set [2], 4.67 ± 0.81 µg/mL (≈ 14.2 µM); in data set [3], 5.99 ± 0.24 µg/mL (≈ 18.2 µM); in [4], 11 ± 0.44 µg/mL (≈ 33.6 µM); in data set [5] it was 14.3 ± 0.5 µg/mL (≈ 43.5 µM); in data set [6], more than 20 µg/mL. The IC50 in data set [7] is more than 20 µg/mL. The MCF-7 activity class (from IC50) in data set [5] is 1 to 20 µg/mL. Besides, the “activity against all human cancer cell lines” value in data set [8] was “marginal activities”. Further, the “inhibition on Topo IIα (supercoiled DNA instead of relaxed)” value in data set [9] (200 µmol/L) was “had the similar effect”. Moreover, the “formation of linear DNA (Topo IIα DNA cleavage complex)” value in [9] (pHOT plasmid DNA, topoisomerase IIα) was “induced the formation of linear DNA”.

Take `COC1=CC(=O)c2ccc3cc(OC)cc(OC)c3c2C1=O` [Compound 5b, 3,5,7-Trimethoxy-1,4-phenanthrenequinone]: the IC50 was 13 ± 0.21 µg/mL (≈ 43.5 µM) in data set [1]; 15.9 ± 0.21 µg/mL (≈ 53.5 µM) in [2]; 15.25 ± 0.05 µg/mL (≈ 51.1 µM) in data set [3]; 15.7 ± 0.17 µg/mL (≈ 52.7 µM) in data set [4]; 14.4 ± 0.28 µg/mL (≈ 48.3 µM) in data set [5]; 19 ± 0.55 µg/mL (≈ 63.6 µM) in data set [6]. In [7], the IC50 is more than 20 µg/mL. Also, in data set [5], the MCF-7 activity class (from IC50) was in the range of 1 to 20 µg/mL. Besides, the “activity against all human cancer cell lines” value in data set [8] is given as “marginal activities”.

In turn, `COc1cc(OC)c2c3c(ccc2c1)C(=O)CC(OC)(OC)C3=O` [Compound 5c, 3,3,5,7-tetramethoxy-2,3-dihydro-1,4-phenanthrenequinone] gave a melting point of 179 °C. In data set [1], this compound came in with an IC50 of more than 20 µg/mL. Besides, in data set [2], the IC50 stood at 13.8 ± 0.38 µg/mL (≈ 41.7 µM). For the same compound, in data set [3], the IC50 amounted to 9.07 ± 0.09 µg/mL (≈ 27.5 µM). The IC50 in [4] was 12 ± 2.18 µg/mL (≈ 36.3 µM). Besides, in [5], the IC50 stood at 11.1 ± 0.02 µg/mL (≈ 33.6 µM) and the MCF-7 activity class (from IC50) is 1 to 20 µg/mL. In data set [6], the IC50 came out at 19.1 ± 0.43 µg/mL (≈ 57.9 µM). The IC50 in data set [7] is more than 20 µg/mL.

As for `COC1=CC(=O)c2ccc3c(-c4c(OC)c(OC)c(OC)c5c6c(ccc45)C(OC)=CC(=O)C6=O)c(OC)c(OC)c(OC)c3c2C1=O` [Compound 5f, 3,5,6,7,1′,5′,6′,7′-octamethoxy-[8,8′]bi-1,4,5′,6′-phenanthrenequinone], the melting point stood at 268 °C. Further, in data set [1], the IC50 came out at 19.6 ± 0.74 µg/mL (≈ 30 µM). The IC50 in data set [2] is 7.88 ± 0.19 µg/mL (≈ 12 µM). Also, in data set [3], the IC50 was determined as 4.57 ± 0.03 µg/mL (≈ 6.98 µM). The same compound returned an IC50 in data set [4] of more than 20 µg/mL. For the same compound, in data set [5], the IC50 was found to be 14.8 ± 0.21 µg/mL (≈ 22.6 µM) and the MCF-7 activity class (from IC50) fell in the range of 1 to 20 µg/mL. Moreover, the IC50 in data set [6] was 4.74 ± 0.02 µg/mL (≈ 7.24 µM). Moreover, the IC50 in [7] was more than 20 µg/mL.

As for `COC1=CC(=O)c2ccc3cc(OC)cc(O)c3c2C1=O` [Compound 6b, 5-Hydroxy-3,7-dimethoxy-1,4-phenanthrenequinone], the IC50 was 0.23 ± 0.01 µg/mL (≈ 0.809 µM) in [1]; 0.34 µg/mL (≈ 1.2 µM) in [2]; 0.68 µg/mL (≈ 2.39 µM) in data set [3]; 0.99 ± 0.02 µg/mL (≈ 3.48 µM) in [4]; 0.26 µg/mL (≈ 0.915 µM) in data set [5]; 1.06 ± 0.03 µg/mL (≈ 3.73 µM) in [6]. In addition, the IC50 in [7] is 2.14 ± 0.08 µg/mL (≈ 7.53 µM); in data set [8] (Homo sapiens, range over the cancer cell lines tested, read-out: IC50 against various / all human cancer cell lines) it was 0.08 to 1.66 µg/mL (≈ 0.281 to 5.84 µM).

(Values after PMC3362575, “Synthesis and Biological Evaluation of Phenanthrenes as Cytotoxic Agents with Pharmacophore Modeling and ChemGPS-NP Prediction as Topo II Inhibitors” (PLoS ONE, 2012).)
